Measurements: ChEMBL document CHEMBL4477267, “Discovery of oxa-sultams as RORc inverse agonists showing reduced lipophilicity, improved selectivity and favorable ADME properties” (Bioorg Med Chem Lett, 2016)
≈ marks a conversion by molar mass, not a printed value. Each block holds one compound with its values, some of them ahead of it.

What was measured:
[1] = target: T1, Nuclear receptor ROR-gamma (Homo sapiens) (UniProt P51449); assay: Inverse agonist activity at human RORc-LBD assessed as inhibition of SRC1 co-activator peptide recruitment by FRET assay relative to apo-RORc basal activity
T1 sequence (whole entry): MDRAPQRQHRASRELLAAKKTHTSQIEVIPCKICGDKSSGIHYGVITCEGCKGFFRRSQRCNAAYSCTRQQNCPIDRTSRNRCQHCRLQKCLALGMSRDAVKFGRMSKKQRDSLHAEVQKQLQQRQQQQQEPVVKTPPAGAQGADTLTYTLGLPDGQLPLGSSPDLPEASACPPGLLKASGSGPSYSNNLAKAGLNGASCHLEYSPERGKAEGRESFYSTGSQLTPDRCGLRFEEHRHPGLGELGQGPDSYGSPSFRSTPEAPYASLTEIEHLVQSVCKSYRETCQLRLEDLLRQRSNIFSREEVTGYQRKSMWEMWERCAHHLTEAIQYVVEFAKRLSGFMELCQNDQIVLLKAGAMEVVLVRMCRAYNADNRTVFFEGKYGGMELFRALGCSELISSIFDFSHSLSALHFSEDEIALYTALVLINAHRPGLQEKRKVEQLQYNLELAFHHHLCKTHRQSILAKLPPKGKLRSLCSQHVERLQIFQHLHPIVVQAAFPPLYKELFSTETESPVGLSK

[2] = Protein binding in human plasma by equilibrium dialysis; format: ADME, cell-free; details: read-out: PPB (converted)
PBMC [3] = assay: Inhibition of IL-17AA production in anti-CD3 and anti-CD28 stimulated human PBMC measured […] by Sandwich ELISA relative to control; format: functional
[4] = target: T2, Nuclear receptor ROR-alpha (Homo sapiens, UniProt P35398); assay: Inverse agonist activity at GAL4-fused human RORa expressed in HEK293 cells assessed as […] of basal transcriptional activity by dual-glo luciferase reporter gene assay; format: cell-based
T2 sequence (P35398 whole entry): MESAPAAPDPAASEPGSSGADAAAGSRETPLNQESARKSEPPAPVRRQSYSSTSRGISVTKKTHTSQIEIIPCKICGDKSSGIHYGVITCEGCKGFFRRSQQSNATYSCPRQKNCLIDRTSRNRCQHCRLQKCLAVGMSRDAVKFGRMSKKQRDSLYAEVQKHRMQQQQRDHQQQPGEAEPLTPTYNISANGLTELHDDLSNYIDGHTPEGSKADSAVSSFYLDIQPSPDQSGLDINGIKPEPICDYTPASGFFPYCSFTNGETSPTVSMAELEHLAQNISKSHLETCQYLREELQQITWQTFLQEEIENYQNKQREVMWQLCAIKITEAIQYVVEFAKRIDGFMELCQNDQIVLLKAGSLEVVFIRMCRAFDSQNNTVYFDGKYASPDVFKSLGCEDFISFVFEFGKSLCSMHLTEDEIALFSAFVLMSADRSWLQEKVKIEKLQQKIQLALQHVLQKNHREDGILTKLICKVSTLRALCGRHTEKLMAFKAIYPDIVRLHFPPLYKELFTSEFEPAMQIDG

[5] = Efflux ratio of apparent permeability from basolateral to apical over apical to basolateral side in MDCK cells; format: ADME, cell-based, Canis lupus familiaris; details: dog
PBMC [6] = assay: Inhibition of IFN-gamma production in anti-CD3 and anti-CD28 stimulated human PBMC measured […] by Sandwich ELISA; format: functional, cell-based
[7] = Apparent permeability from basolateral to apical side in MDCK cells; format: ADME, cell-based, Canis lupus familiaris; details: dog
[8] = target: T3, Nuclear receptor ROR-gamma (Homo sapiens, UniProt P51449); assay: Inverse agonist activity at human RORc-LBD assessed as inhibition of SRC1 co-activator peptide recruitment by FRET assay
T3 sequence (P51449 whole entry): T1 sequence (whole entry)

PBMC [9] = assay: Inhibition of IL-17AA production in anti-CD3 and anti-CD28 stimulated human PBMC measured […] by Sandwich ELISA; format: functional, cell-based
[10] = Clearance in rat liver microsomes relative to liver blood flow; format: ADME, Microsome; details: read-out: CLH
PBMC [11] = assay: Cytotoxicity against human PBMC assessed as cell viability measured after 48 hrs by CellTiter-Glo assay; format: cell-based
[12] = Protein binding in mouse plasma by equilibrium dialysis; format: ADME, cell-free; details: read-out: PPB (converted)
[13] = Aqueous kinetic solubility of the compound in pH 7.4 by high-throughput assay; format: physicochemical
[14] = target: T4, Nuclear receptor ROR-beta (Homo sapiens, UniProt Q92753); assay: Inverse agonist activity at GAL4-fused human RORb expressed in HEK293 cells assessed as […] of basal transcriptional activity by dual-glo luciferase reporter gene assay; format: cell-based
T4 sequence (Q92753 whole entry): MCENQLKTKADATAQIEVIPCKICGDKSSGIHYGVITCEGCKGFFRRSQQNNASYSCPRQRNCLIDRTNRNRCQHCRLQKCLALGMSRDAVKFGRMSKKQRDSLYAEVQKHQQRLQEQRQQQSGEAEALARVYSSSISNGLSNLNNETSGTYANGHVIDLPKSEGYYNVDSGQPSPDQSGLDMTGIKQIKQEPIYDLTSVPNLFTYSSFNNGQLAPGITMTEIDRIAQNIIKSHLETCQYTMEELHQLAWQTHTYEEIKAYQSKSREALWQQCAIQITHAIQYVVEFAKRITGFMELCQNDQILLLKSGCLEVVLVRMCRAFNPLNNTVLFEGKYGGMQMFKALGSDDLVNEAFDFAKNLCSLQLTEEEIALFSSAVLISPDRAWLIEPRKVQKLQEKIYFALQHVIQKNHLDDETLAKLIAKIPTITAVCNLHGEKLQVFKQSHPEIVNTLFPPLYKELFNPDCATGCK

[15] = Protein binding in rat plasma by equilibrium dialysis; format: ADME, cell-free; details: read-out: PPB (converted)
[16] = Apparent permeability from apical to basolateral side in MDCK cells; format: ADME, cell-based, Canis lupus familiaris; details: dog
[17] = target: T3, Nuclear receptor ROR-gamma; assay: Inverse agonist activity at GAL4-fused human RORc expressed in HEK293 cells assessed as […] of basal transcriptional activity by dual-glo luciferase reporter gene assay; format: cell-based
[18] = Clearance in human liver microsomes relative to liver blood flow; format: ADME, Microsome; details: read-out: CLH

SMILES: CC(=O)N1CCN(c2ccc(CN3[C@@H](C)CC[C@H](c4ncccn4)S3(=O)=O)c(F)c2)CC1
Efficacy [1]: 76%
EC50 [8]: 410 nM

SMILES: CC(=O)N1CCN(c2ccc(CN3CCOC[C@H](c4ccccc4)S3(=O)=O)c(F)c2)CC1
Efficacy [1]: 99%
Imax (PBMC [3]): 59%
EC50 (PBMC [6]): > 20 µM
EC50 [8]: 31 nM
EC50 (PBMC [9]): 1200 nM
EC50 (PBMC [11]): > 20 µM

SMILES: CC(=O)N1CCN(c2ccc(CN3[C@@H](C)CC[C@H](c4cccnc4)S3(=O)=O)c(F)c2)CC1
Efficacy [1]: 73%
EC50 [8]: 820 nM

SMILES: CC(=O)N1CCN(c2ccc(CN3[C@@H](C)CC[C@H](c4ccncc4)S3(=O)=O)c(F)c2)CC1
Efficacy [1]: 89%
EC50 [8]: 410 nM

SMILES: COc1ccccc1[C@H]1CC[C@H](C)N(Cc2ccc(N3CCN(C(C)=O)CC3)cc2F)S1(=O)=O
Efficacy [1]: 94%
EC50 [8]: 94 nM

SMILES: COc1ccc([C@H]2CC[C@H](C)N(Cc3ccc(N4CCN(C(C)=O)CC4)cc3F)S2(=O)=O)cc1
Efficacy [1]: 96%
EC50 [8]: 28 nM

SMILES: CC(=O)N1CCN(c2ccc(CN3[C@@H](C)CC[C@H](c4ccc(Cl)cc4)S3(=O)=O)c(F)c2)CC1
Efficacy [1]: 99%
EC50 [8]: 34 nM

SMILES: CC(=O)N1CCN(c2ccc(CN3[C@H](C)COC[C@H](c4ccccc4)S3(=O)=O)c(F)c2)CC1
Efficacy [1]: 98%
EC50 [8]: 73 nM

SMILES: CC(=O)N1CCN(c2ccc(CN3[C@@H](C)CC[C@H](c4cccs4)S3(=O)=O)c(F)c2)CC1
Efficacy [1]: 91%
EC50 [8]: 2 nM

SMILES: CC(=O)N1CCN(c2ccc(CN3[C@@H](C)CC[C@H](c4ccccc4)S3(=O)=O)c(F)c2)CC1
fraction unbound [2]: 0.05
Imax (PBMC [3]): 82%
EC50 [4]: 5.4 µM
EC50 (PBMC [6]): > 20 µM
Papp B→A [7]: 32 ×10⁻⁶ cm/s
EC50 (PBMC [9]): 450 nM
EC50 (PBMC [11]): > 20 µM
fraction unbound [12]: 0.04
solubility kinetic [13]: 20 µM (≈ 9.19 µg/mL)
EC50 [14]: 5.4 µM
fraction unbound [15]: 0.05
Papp A→B [16]: 24 ×10⁻⁶ cm/s
EC50 [17]: 47 nM

SMILES: CC(=O)N1CCN(c2ccc(CN3[C@@H](C)COC[C@H](c4ccccc4)S3(=O)=O)c(F)c2)CC1
Efficacy [1]: 100%
Imax (PBMC [3]): 80%
EC50 [4]: > 10 µM
EC50 (PBMC [6]): > 20 µM
EC50 [8]: 8 nM
EC50 (PBMC [9]): 750 nM
EC50 (PBMC [11]): > 20 µM
EC50 [14]: > 10 µM
EC50 [17]: 64 nM

SMILES: CC(=O)N1CCN(c2ccc(CN3C[C@@H](C)OC[C@H](c4ccccc4)S3(=O)=O)c(F)c2)CC1
Efficacy [1]: 100%
EC50 [8]: 21 nM

SMILES: CC(=O)N1CCN(c2ccc(CN3CCCC[C@H](c4ccccc4)S3(=O)=O)c(F)c2)CC1
Efficacy [1]: 99%
Imax (PBMC [3]): 80%
EC50 [4]: 6.8 µM
EC50 (PBMC [6]): > 20 µM
EC50 [8]: 6 nM
EC50 (PBMC [9]): 430 nM
EC50 (PBMC [11]): > 20 µM
EC50 [14]: 6.8 µM
EC50 [17]: 25 nM

The next lines start with results.

Efficacy [1]: 100%
fraction unbound [2]: 0.11
EC50 [4]: > 10 µM
efflux ratio [5]: 1
Papp B→A [7]: 15 ×10⁻⁶ cm/s
EC50 [8]: 3 nM
hepatic extraction ratio [10]: > 0.7
fraction unbound [12]: 0.06
solubility kinetic [13]: 38 µM (≈ 18.1 µg/mL)
EC50 [14]: > 10 µM
fraction unbound [15]: 0.07
Papp A→B [16]: 16 ×10⁻⁶ cm/s
EC50 [17]: 22 nM
hepatic extraction ratio [18]: > 0.7
SMILES: CC(=O)N1CCN(c2ccc(CN3C[C@H](C)OC[C@H](c4ccccc4)S3(=O)=O)c(F)c2)CC1
Imax (PBMC [3]): 67%
EC50 (PBMC [6]): > 20 µM
EC50 (PBMC [9]): 450 nM
EC50 (PBMC [11]): > 20 µM

Efficacy [1]: 64%
EC50 [8]: 1300 nM
SMILES: CC(=O)N1CCN(c2ccc(CN3[C@@H](C)CC[C@H](c4cccc(C#N)c4)S3(=O)=O)c(F)c2)CC1

Efficacy [1]: 97%
EC50 [8]: 58 nM
SMILES: COc1cccc([C@H]2CC[C@H](C)N(Cc3ccc(N4CCN(C(C)=O)CC4)cc3F)S2(=O)=O)c1

Efficacy [1]: 87%
EC50 [8]: 120 nM
SMILES: CC(=O)N1CCN(c2ccc(CN3[C@@H](C)CC[C@H](c4ccccn4)S3(=O)=O)c(F)c2)CC1

Efficacy [1]: 99%
EC50 [8]: 7 nM
SMILES: CC(=O)N1CCN(c2ccc(CN3[C@@H](C)CC[C@H](c4cccc(Cl)c4)S3(=O)=O)c(F)c2)CC1

Efficacy [1]: 98%
EC50 [8]: 13 nM
SMILES: CC(=O)N1CCN(c2ccc(CN3[C@@H](C)CC[C@H](c4ccsc4)S3(=O)=O)c(F)c2)CC1

Efficacy [1]: 76%
EC50 [8]: 1900 nM
SMILES: CC(=O)N1CCN(c2ccc(CN3[C@@H](C)CC[C@H](c4ccccc4C#N)S3(=O)=O)c(F)c2)CC1

Efficacy [1]: 62%
EC50 [8]: 3900 nM
SMILES: CC(=O)N1CCN(c2ccc(CN3[C@@H](C)CC[C@H](c4ccc(C#N)cc4)S3(=O)=O)c(F)c2)CC1

Efficacy [1]: 91%
EC50 [8]: 230 nM
SMILES: CC(=O)N1CCN(c2ccc(CN3[C@@H](C)CC[C@H](c4ccccc4Cl)S3(=O)=O)c(F)c2)CC1
